From patent US9828386B2 (priority 2013, dated 2017) come the findings set out here.

Where two headings read alike, the source gives them in different places.

Test in all cases: cells
Holding throughout (format): cell-based

The subject of experiment [1] is Hela cell line. The note with it: Hela cells, MTT, 48 h cultivation, read-out: IC50 (μM) Hela. How it is done:
(§1) Test of compounds of embodiment of the present invention on inhibiting tumor cell activity
(§2) 3, cell lines: A549, BGC823, Hela cell line and normal human hepatocytes which are available from Wu Han boster Co., Ltd.;
(§3) A549, BGC823, Hela cell line and normal human hepatocytes in logarithmic growth phase are subjected to 1000 rpm centrifugation for 5 min, supernatant is then discarded, moderate medium is suspended, the cell concentration is adjusted to 3.5×10^4/well, the cells were seeded in 96-wells culture plate, and following experimental groups are set:
(§4) a negative control group; 35 test groups with same concentration (ie: groups of Compound (1) to Compound (35)); three control groups: groups of podophyllotoxin, 4′-demethylepipodophyllotoxin and etoposide.
(§5) Taking RPMI1640 containing 10% of calf serum as nutrient solution, 0.10 mL of cells per well is incubated under conditions of 37° C., 5% CO2 and saturated humidity for 24 h to nearly be covered, then the nutrient solution is discarded. […] 100 μl of DMSO is added to each well, then vibrated at 37° C. by shaker table for 30 min, then measuring absorbance (OD) at 492 nm, calculating MTT ratio=OD value of drug group/OD value of the negative control group.

The subject of experiment [2] is A549 cell line. Particulars: A549 cells, MTT, 48 h cultivation; read-out: IC50 (μM) A549. How it is done:
as §1, §2, §3, §4, §5

The subject of experiment [3] is BGC823 cell line. The note with it: BGC823 cells, MTT, 48 h cultivation; read-out: IC50 (μM) BGC823. How it is done: as §1, §2, §3, §4, §5

Regarding “4-S-(5-methyl-1,2,4-triazole-3)-4-deoxy-4′-demethylepipodophyllotoxin [Compound 20]”, the results for the IC50 in experiment [1], in experiment [2] and in experiment [3] were 6.62 ± 0.35 µM, 0.35 ± 0.37 µM and 0.21 ± 0.35 µM, respectively.

For `COc1cc(C2c3cc4c(cc3C(O)C3COC(=O)C23)OCO4)cc(OC)c1O` (stereo not shown) [4′-demethylepipodophyllotoxins, 4′-demethylepipodophyllotoxin, reference compound], the results for the IC50 in experiment [1], in experiment [2] and in experiment [3] were 49.32 ± 0.38 µM, 52.9 ± 0.85 µM and 63.09 ± 0.49 µM, respectively.

Consider `COc1cc(C2c3cc4c(cc3C(Sc3n[nH]c(N)n3)C3COC(=O)C23)OCO4)cc(OC)c1OC` (stereo not drawn) [Compound 1, 4-S-(3-amino-1,2,4-triazole-5)-4-deoxy-podophyllotoxin], for which the figures for the IC50 in experiment [1], in experiment [2] and in experiment [3] were 2.86 ± 0.34 µM, 5.76 ± 0.34 µM and 0.83 ± 0.14 µM, respectively.

In the case of `COc1cc(C2c3cc4c(cc3C(Sc3n[nH]c(C)n3)C3COC(=O)C23)OCO4)cc(OC)c1OC` (stereo not drawn) [Compound 2, 4-S-(5-methyl-1,2,4-triazole-3)-4-deoxy-podophyllotoxin], the figures for the IC50 in experiment [1], in experiment [2] and in experiment [3] were 0.15 ± 0.03 µM, 1.01 ± 0.28 µM and 0.27 ± 0.03 µM, respectively.

For `COc1cc(C2c3cc4c(cc3C(Sc3nnc(N)s3)C3COC(=O)C23)OCO4)cc(OC)c1OC` (stereo not drawn) [Compound 3, 4-S-(2-amino-1,3,4-thiadiazole-5)-4-deoxy-podophyllotoxin], the values for the IC50 in experiment [1], in experiment [2] and in experiment [3] were 0.06 ± 0.01 µM, 1.98 ± 2.54 µM and 0.71 ± 0.03 µM, respectively.

As to `COc1cc(C2c3cc4c(cc3C(Sc3nnc(C)s3)C3COC(=O)C23)OCO4)cc(OC)c1OC` (stereo not drawn) [Compound 4, 4-S-(5-methyl-1,3,4-thiadiazol-2)-4-deoxy-podophyllotoxin], the IC50 (commonly the concentration that inhibits the measured activity by half) in experiment [1] was found to be 2.18 ± 0.07 µM; in experiment [2] it was 4.11 ± 0.93 µM; in experiment [3], 4.01 ± 0.02 µM.

For `COc1cc(C2c3cc4c(cc3C(Sc3ccccn3)C3COC(=O)C23)OCO4)cc(OC)c1OC` (stereo not drawn) [Compound 5, 4-S-(pyridin-2)-4-deoxy-podophyllotoxin], the IC50 in experiment [1] was determined as 0.73 ± 0.05 µM; in experiment [2] it was 5.66 ± 0.47 µM; in experiment [3], 4.76 ± 0.12 µM.

`COc1cc(C2c3cc4c(cc3C(Sc3ncccc3C(=O)O)C3COC(=O)C23)OCO4)cc(OC)c1OC` (stereo not drawn) [Compound 6, 4-S-(3-picolinate-2)-4-deoxy-podophyllotoxin]: the IC50 in experiment [1] amounted to 1.71 ± 0.07 µM; in experiment [2], 0.83 ± 0.25 µM; in experiment [3] it was 2.65 ± 0.53 µM.

On to `COc1cc(C2c3cc4c(cc3C(Sc3cccc(C)n3)C3COC(=O)C23)OCO4)cc(OC)c1OC` (stereo not drawn) [Compound 7, 4-S-(6-methyl-pyridin-2)-4-deoxy-podophyllotoxin], for which the IC50 in experiment [1] came to 0.9 ± 0.05 µM; in experiment [2] it was 1.12 ± 0.28 µM; in experiment [3], 3.51 ± 0.14 µM.

For the compound `COc1cc(C2c3cc4c(cc3C(Sc3ccncc3)C3COC(=O)C23)OCO4)cc(OC)c1OC` (stereo not drawn) [Compound 8, 4-S-(pyridin-4)-4-deoxy-podophyllotoxin], the IC50 worked out at 3.85 ± 0.14 µM in experiment [1], 8.12 ± 0.09 µM in experiment [2] and 1.52 ± 0.11 µM in experiment [3].

Take `COc1cc(C2c3cc4c(cc3C(Sc3ncccn3)C3COC(=O)C23)OCO4)cc(OC)c1OC` (stereo not drawn) [Compound 9, 4-S-(pyrimidine-2)-4-deoxy-podophyllotoxin]: the figures for the IC50 in experiment [1], in experiment [2] and in experiment [3] were 3.64 ± 0.46 µM, 6.4 ± 0.38 µM and 0.71 ± 0.14 µM, respectively.

Consider `COc1cc(C2c3cc4c(cc3C(Sc3nccc(N)n3)C3COC(=O)C23)OCO4)cc(OC)c1OC` (stereo not drawn) [Compound 10, 4-S-(4-amino-pyrimidine-2)-4-deoxy-podophyllotoxin], for which the IC50 in experiment [1] is 1.85 ± 0.12 µM; in experiment [2], 4.65 ± 0.26 µM; in experiment [3], 1.32 ± 0.15 µM.

With `COc1cc(C2c3cc4c(cc3C(Sc3nc(C)cc(C)n3)C3COC(=O)C23)OCO4)cc(OC)c1OC` (stereo not drawn) [Compound 11, 4-S-(4,6-dimethyl-pyrimidine-2)-4-deoxy-podophyllotoxin], the results for the IC50 in experiment [1], in experiment [2] and in experiment [3] were 0.11 ± 0.01 µM, 3.31 ± 0.26 µM and 1.99 ± 0.34 µM, respectively.

Take `COc1cc(C2c3cc4c(cc3C(Sc3nc5ccccc5s3)C3COC(=O)C23)OCO4)cc(OC)c1OC` (stereo not drawn) [Compound 12, 4-S-(benzothiazol-2)-4-deoxy-podophyllotoxin]: the results for the IC50 in experiment [1], in experiment [2] and in experiment [3] were 0.6 ± 0.39 µM, 3.85 ± 0.47 µM and 0.31 ± 0.34 µM, respectively.

Turning to `COc1cc(C2c3cc4c(cc3C(Sc3nc5ccccc5[nH]3)C3COC(=O)C23)OCO4)cc(OC)c1OC` (stereo not drawn) [Compound 13, 4-S-(benzimidazol-2)-4-deoxy-podophyllotoxin], the values for the IC50 in experiment [1], in experiment [2] and in experiment [3] were 3.1 ± 0.16 µM, 6.76 ± 4.31 µM and 2.32 ± 0.01 µM, respectively.

Take `COc1cc(C2c3cc4c(cc3C(Sc3nc5ccccc5o3)C3COC(=O)C23)OCO4)cc(OC)c1OC` (stereo not drawn) [Compound 14, 4-S-(benzoxazole-2)-4-deoxy-podophyllotoxin]: the figures for the IC50 in experiment [1], in experiment [2] and in experiment [3] were 0.92 ± 0.08 µM, 1.01 ± 0.14 µM and 0.21 ± 0.02 µM, respectively.

Take `COc1cc(C2c3cc4c(cc3C(Sc3nc(NS(=O)(=O)c5ccc(C)cc5)n[nH]3)C3COC(=O)C23)OCO4)cc(OC)c1OC` (stereo not drawn) [Compound 15, 4-S-[3-N-(4-methyl-benzenesulfonamide-)-1,2,4-triazole-5-]-4-deoxy-podophyllotoxin]: the IC50 in experiment [1] came out at 0.6 ± 0.08 µM; in experiment [2] it was 2.36 ± 0.23 µM; in experiment [3], 1.69 ± 0.07 µM.

As for `COc1ccc(S(=O)(=O)Nc2n[nH]c(SC3c4cc5c(cc4C(c4cc(OC)c(OC)c(OC)c4)C4C(=O)OCC34)OCO5)n2)cc1` (stereo not drawn) [Compound 16, 4-S-[3-N-(4-methoxy-benzenesulfonamide-)-1,2,4-triazole-5-]-4-deoxy-podophyllotoxin], the IC50 in experiment [1] came out at 1.56 ± 0.05 µM; in experiment [2], 1.24 ± 0.33 µM; in experiment [3] it was 0.67 ± 0.05 µM.

Regarding `COc1cc(C2c3cc4c(cc3C(Sc3nnc(NS(=O)(=O)c5ccc(C)cc5)s3)C3COC(=O)C23)OCO4)cc(OC)c1OC` (stereo not drawn) [Compound 17, 4-S-[2-N-(4-methyl-benzenesulfonamide-)-1,3,4-thiadiazole-5-]-4-deoxy-podophyllotoxin], the IC50 in experiment [1] amounted to 0.97 ± 0.02 µM; in experiment [2] it was 1.12 ± 1.74 µM; in experiment [3], 1.04 ± 0.13 µM.

Regarding `COc1ccc(S(=O)(=O)Nc2nnc(SC3c4cc5c(cc4C(c4cc(OC)c(OC)c(OC)c4)C4C(=O)OCC34)OCO5)s2)cc1` (stereo not drawn) [Compound 18, 4-S-[2-N-(4-methoxy-benzenesulfonamide-)-1,3,4-thiadiazole-5-]-4-deoxy-podophyllotoxin], the values for the IC50 in experiment [1], in experiment [2] and in experiment [3] were 4.14 ± 0.47 µM, 4.05 ± 0.15 µM and 1.27 ± 0.13 µM, respectively.

Take `COc1cc(C2c3cc4c(cc3C(Sc3nc(N)n[nH]3)C3COC(=O)C23)OCO4)cc(OC)c1O` (stereo not drawn) [Compound 19, 4-S-(3-amino-1,2,4-triazole-5)-4-deoxy-4′-demethylepipodophyllotoxin]: the IC50 in experiment [1] is 1.51 ± 0.37 µM; in experiment [2], 0.93 ± 0.84 µM; in experiment [3] it was 1.93 ± 1.67 µM.

With `COc1cc(C2c3cc4c(cc3C(Sc3nnc(C)s3)C3COC(=O)C23)OCO4)cc(OC)c1O` (stereo not drawn) [Compound 21, 4-S-(5-methyl-1,3,4-thiadiazol-2)-4-deoxy-4′-demethylepipodophyllotoxin], the IC50 stood at 0.52 µM in experiment [1], 5.76 ± 0.18 µM in experiment [2] and 0.83 ± 0.14 µM in experiment [3].

For the compound `COc1cc(C2c3cc4c(cc3C(Sc3ccccn3)C3COC(=O)C23)OCO4)cc(OC)c1O` (stereo not drawn) [Compound 22, 4-S-(pyridin-2)-4-deoxy-4′-demethylepipodophyllotoxin], the IC50 is 2.31 ± 0.31 µM in experiment [1], 1.01 ± 0.38 µM in experiment [2] and 0.27 ± 0.03 µM in experiment [3].

In the case of `COc1cc(C2c3cc4c(cc3C(Sc3ncccc3C(=O)O)C3COC(=O)C23)OCO4)cc(OC)c1O` (stereo not drawn) [Compound 23, 4-S-(3-picolinate-2)-deoxy-4′-demethylepipodophyllotoxin], the figures for the IC50 in experiment [1], in experiment [2] and in experiment [3] were 1.22 ± 0.25 µM, 2.03 ± 0.45 µM and 6.68 ± 0.04 µM, respectively.

On to `COc1cc(C2c3cc4c(cc3C(Sc3cccc(C)n3)C3COC(=O)C23)OCO4)cc(OC)c1O` (stereo not drawn) [Compound 24, 4-S-(6-methyl-pyridin-2)-4-deoxy-4′-demethylepipodophyllotoxin], for which the figures for the IC50 in experiment [1], in experiment [2] and in experiment [3] were 7.18 ± 0.07 µM, 1.11 ± 0.94 µM and 4.01 ± 0.02 µM, respectively.

As to `COc1cc(C2c3cc4c(cc3C(Sc3ccncc3)C3COC(=O)C23)OCO4)cc(OC)c1O` (stereo not drawn) [Compound 25, 4-S-(pyridin-4)-4-deoxy-4′-demethylepipodophyllotoxin], the figures for the IC50 in experiment [1], in experiment [2] and in experiment [3] were 0.73 ± 0.05 µM, 2.66 ± 0.27 µM and 4.76 ± 0.12 µM, respectively.

For `COc1cc(C2c3cc4c(cc3C(Sc3ncccn3)C3COC(=O)C23)OCO4)cc(OC)c1O` (stereo not drawn) [Compound 26, 4-S-(pyrimidine-2)-4-deoxy-4′-demethylepipodophyllotoxin], the IC50 in experiment [1] was 0.25 ± 0.32 µM; in experiment [2], 4.28 ± 0.11 µM; in experiment [3], 0.51 ± 0.53 µM.

On to `COc1cc(C2c3cc4c(cc3C(Sc3nccc(N)n3)C3COC(=O)C23)OCO4)cc(OC)c1O` (stereo not drawn) [Compound 27, 4-S-(4-amino-pyrimidine-2)-4-deoxy-4′-demethylepipodophyllotoxin], for which the IC50 in experiment [1] came out at 1.33 ± 0.39 µM; in experiment [2], 3.27 ± 0.17 µM; in experiment [3] it was 0.22 ± 0.03 µM.

On to `COc1cc([C@@H]2c3cc4c(cc3[C@@H](O[C@@H]3O[C@@H]5CO[C@@H](C)O[C@H]5[C@H](O)[C@H]3O)[C@H]3COC(=O)[C@H]23)OCO4)cc(OC)c1O` [etoposide, reference compound], for which the IC50 in experiment [1] (Homo sapiens) stood at 13.2 ± 1.65 µM.
